Measured values published in BindingDB's records for doi:10.3109/14756366.2011.643303 (Ondokuz Mayis University, 2013).
pKi: −log10 of the molar value.

Columns and labels:
Assay in all cases: Esterase Activity Assay
Conditions in all cases: pH 7.4
Carbonic anhydrase 2 = Carbonic anhydrase 2 (Homo sapiens, UniProt P00918)
Carbonic anhydrase 3 = biological target: T1, Carbonic anhydrase 3 (Bos taurus, UniProt Q3SZX4)
T1 sequence (Q3SZX4 whole entry): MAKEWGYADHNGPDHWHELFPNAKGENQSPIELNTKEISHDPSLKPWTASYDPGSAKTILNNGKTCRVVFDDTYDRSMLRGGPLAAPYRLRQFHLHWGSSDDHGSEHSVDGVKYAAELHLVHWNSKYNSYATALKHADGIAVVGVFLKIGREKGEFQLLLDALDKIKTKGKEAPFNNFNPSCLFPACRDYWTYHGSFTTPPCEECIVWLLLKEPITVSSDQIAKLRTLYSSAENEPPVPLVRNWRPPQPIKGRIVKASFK

Carbonic anhydrase 1 = Carbonic anhydrase 1 (Homo sapiens, UniProt P00915)
Carbonic anhydrase 4 = Carbonic anhydrase 4 (Homo sapiens, UniProt P22748)
Sequence of Carbonic anhydrase 4 (P22748 whole entry): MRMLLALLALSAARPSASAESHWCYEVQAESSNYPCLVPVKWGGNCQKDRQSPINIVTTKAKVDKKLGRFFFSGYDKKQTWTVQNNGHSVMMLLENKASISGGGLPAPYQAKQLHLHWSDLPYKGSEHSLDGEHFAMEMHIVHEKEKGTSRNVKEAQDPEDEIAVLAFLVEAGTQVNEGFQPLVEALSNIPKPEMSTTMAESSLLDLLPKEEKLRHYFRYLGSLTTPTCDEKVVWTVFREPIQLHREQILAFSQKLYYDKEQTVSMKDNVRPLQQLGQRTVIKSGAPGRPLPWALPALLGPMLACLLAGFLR

Sequence of Carbonic anhydrase 1 (P00915 whole entry): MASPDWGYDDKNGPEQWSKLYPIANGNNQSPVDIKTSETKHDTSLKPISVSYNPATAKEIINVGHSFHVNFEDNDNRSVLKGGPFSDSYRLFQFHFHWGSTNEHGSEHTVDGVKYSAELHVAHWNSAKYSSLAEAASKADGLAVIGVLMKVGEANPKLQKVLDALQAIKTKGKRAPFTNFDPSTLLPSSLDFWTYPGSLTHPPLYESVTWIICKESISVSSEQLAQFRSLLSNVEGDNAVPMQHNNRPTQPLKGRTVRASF

Compound | pKi (Carbonic anhydrase 2) | pKi (Carbonic anhydrase 3) | pKi (Carbonic anhydrase 1) | pKi (Carbonic anhydrase 4)
Oc1ccccc1 | 5.13 | 5.34 | 4.76 | 4.84
Oc1cccc(O)c1 | 5.03 | 3.66 | 3.08 | 3.20
Oc1ccccc1O [1,2-Dihydroxybenzene, XI] | 4.94 | 5.19 | – | –
O=c1c(O)c(-c2ccc(O)cc2O)oc2cc(O)cc(O)c12 [2-(2,4-dihydroxyphenyl)-3,5,7-trihydroxychromen-4-one] | 5.36 | 4.67 | 4.89 | 4.80
O=c1c(O)c(-c2ccc(O)c(O)c2)oc2cc(O)cc(O)c12 [2-(3,4-dihydroxyphenyl)-3,5,7-trihydroxy-chromone;hydrate] | 5.62 | 5.04 | 5.44 | 4.86
O=c1cc(-c2ccc(O)c(O)c2)oc2cc(O)cc(O)c12 [2-(3,4-dihydroxyphenyl)-5,7-dihydroxy-4H-chromen-4-one] | 6.13 | 5.27 | 5.66 | 5.36
Oc1cc(O)c2c(c1)O[C@H](c1ccc(O)c(O)c1)[C@@H](O)C2 [(+)-Catechin] | – | 5.66 | 5.17 | 5.25
O=c1cc(-c2ccc(O)cc2)oc2cc(O)cc(O)c12 [Naringenin, 18] | 5.57 | 4.94 | 5.39 | 5.04
